How the values were obtained:
[1] = Brain levels of compound after i.p. injection (BBB passage), LC-MS; format: in vivo, mouse
Description: (3). Since blood brain barrier (BBB) is the main obstacle for drug development for any CNS disorders, we first wanted to verify whether compound THPI-244 enters the brain. We followed protocols exactly as published previously from our laboratory (Hayes, C D et al., 2013, BMC Med. 26, 11.81). […] We generated a standard graph (FIG. 1.4 (middle)) to be used in the quantitation of THPI-244 in the brain after intraperitoneal (i.p.) injections at 0.2 mg/kg body weight.

[2] = tested on: sAPPα in supernatants of 7WD10 cells; test: Western blot sAPPα release assay, 7WD10 cells; format: cell-based; settings: 10 nM, 7WD10 supernatant
Description: (2). To ascertain that hits identified as a result of AlphaLISA assay are not due to artifacts of the detection system, the sAPPα levels were measured by Western blots as a secondary assay downstream of primary HTS to confirm hits or discard artifacts of the AlphaLISA assay. The assay was performed using a range of concentrations of hit compounds (10-5,000 nM). A hit compound named thiazole piperazine #244 (THPI-244) and THPI-326 induced dose-dependent increase of sAPPα in supernatants of 7WD10 cells (FIG. 1.3). […] Since compound THPI-244 increased sAPPα levels more than THPI-326, we focused on THPI-244 for further validation.
Western blot sAPPα release assay. 7WD10 cells were grown in 6-well plates and treated with test compounds and SAHA (vorinostat) at several concentrations in duplicate wells. After 24 h of drug exposure, the conditioned media (CM) was collected, centrifuged to remove cell debris and subjected to SDS-PAGE electrophoresis. sAPPα (6E10, mouse IgG from IBL America ltd) was detected using indicated antibody. […] Samples were subjected to SDS-PAGE, transferred and immunoblotted with indicated antibodies and detected by enhanced chemiluminescence method. Quantification of Western blot signals was done using ImageJ software.

[3] = tested on: Aβ42; test: Aβ42 ELISA, NT2 stable cells; format: cell-based, human
Description: (5). To confirm the effect of THPI-244 on sAPPα levels in a neuronal cell line and by a tertiary assay, we exposed human Neuron-committed Teratocarcinoma cell line (NT2) stably expressing human APP751 to different concentrations of THPI-244 for 24 h and compared with that of Bryostatin, a classical activator of PKC known to stimulate sAPPα release. […] Levels of sAPPα were measured by ELISA using commercially available kit (cat #27734, IBL-America, Minneapolis, Minn., USA). […] Similar biphasic effect of Bryostatin was confirmed for Aβ42 also, measured again in NT2 stable cells by ELISA (cat #KHB3441, Life Technologies, Grand Island, N.Y., USA). Consistent with sAPPα, THPI-244 decreased Aβ42 levels dose-dependently starting from 50 nM (28%, p<0.05) to 2000 nM (64%, p<0.001) (n=4 independent experiments) (FIG. 1.7). Thus THPI-244 increased non-amyloidogenic processing of APP in NT2 cells.

[4] = target: T1, TrkA (Mus musculus, UniProt Q3UFB7); test: Mouse brain lysate immunoblot, TrkA; format: in vivo; settings: 100 mg/kg i.p. for 5 days
T1 construct: from tissue; host or cells: mouse brain lysate
Description: FIGS. 9.2A and B illustrate that THPI-244 increases TrkA and sAPPα in the mouse brain. FIG. 9.2A illustrates that THPI-244 was administered to mice by i.p. injections at 100 mg/kg body weight for 5 days and the brain lysates were subjected to immunoblots. Specific antibodies were used to detect TrkA and sAPPα. […] Data are mean±SEM, n=3*, p<0.05, ***, p<0.001.

[5] = tested on: fibroblasts derived directly from AD patients; test: MTT cytotoxicity assay, AD fibroblasts; format: cell-based; settings: 24 h exposure, human AD fibroblasts
Source text: (§1) (4). Toxicity is another crucial limitation for successful drug development as evidenced by recent failure of γ-secretase inhibitors at the clinical trials due to cytotoxicity (Cole, S L and Vassar, R, 2007, Mol. Neurodeg. 2, 22-47; Doody R S, et al. 2013. N. Eng. J. Med. 369, 341-350). Therefore we measured cytotoxicity by very sensitive MTT assay as described previously (Hayes, C D., et al. 2013, BMC Medicine. 26, 11.81; 23; Hayes, C D., et al., 2012, PLoS One 7, e45841) in human primary neurons obtained from a commercial source (cat #1520, ScienCell, Carlsbad, Calif., USA) and fibroblasts derived directly from AD patients (cat #AG06263C, Coriell Institute Cell repository supported by NINDS, NIH). […] We directly used human neurons for toxicity studies so as to reduce the chances of future failure at a later stage due to toxicity.

[6] = target: T2, TrkA (Homo sapiens, UniProt P04629); test: TrkA protein level immunoblot, NT2 cells, with or without PKC inhibitor; format: cell-based; design: endogenous in cells; host or cells: NT2 cells (stably expressing APP751)
Description: (3). THPI-244 increases TrkA receptor levels independent of protein kinase C (PKC). Next to clarify whether increased sAPPα levels depends on increased TrkA activation, NT2 cells were treated with THPI-244 with or without TrkA inhibitor (cat #GW 441756, Tocris Bioscience) at 50 nM final concentration. After 24 h, sAPPα levels were quantified from the conditioned medium by immunoblots. […] We next wanted to address whether increased TrkA protein levels by THPI-244 depends on PKC since PKC activators are well-known to induce sAPPα secretion (Etcheberringaray, R., et al., 2004, PNAS, 101, 11141-11146). NT2 cells were similarly treated with THPI-244 at 100 nM with or without PKC inhibitor (GF 109203, cat #0741, Tocris Bioscience) at 1.0 nM and TrkA protein levels were quantified by immunoblots as shown in FIG. 1.10 (right). […] Thus increased sAPPα level by THPI-244 is through upregulation of TrkA receptor independent of PKC.
Target sequence in this assay (P04629 33-796): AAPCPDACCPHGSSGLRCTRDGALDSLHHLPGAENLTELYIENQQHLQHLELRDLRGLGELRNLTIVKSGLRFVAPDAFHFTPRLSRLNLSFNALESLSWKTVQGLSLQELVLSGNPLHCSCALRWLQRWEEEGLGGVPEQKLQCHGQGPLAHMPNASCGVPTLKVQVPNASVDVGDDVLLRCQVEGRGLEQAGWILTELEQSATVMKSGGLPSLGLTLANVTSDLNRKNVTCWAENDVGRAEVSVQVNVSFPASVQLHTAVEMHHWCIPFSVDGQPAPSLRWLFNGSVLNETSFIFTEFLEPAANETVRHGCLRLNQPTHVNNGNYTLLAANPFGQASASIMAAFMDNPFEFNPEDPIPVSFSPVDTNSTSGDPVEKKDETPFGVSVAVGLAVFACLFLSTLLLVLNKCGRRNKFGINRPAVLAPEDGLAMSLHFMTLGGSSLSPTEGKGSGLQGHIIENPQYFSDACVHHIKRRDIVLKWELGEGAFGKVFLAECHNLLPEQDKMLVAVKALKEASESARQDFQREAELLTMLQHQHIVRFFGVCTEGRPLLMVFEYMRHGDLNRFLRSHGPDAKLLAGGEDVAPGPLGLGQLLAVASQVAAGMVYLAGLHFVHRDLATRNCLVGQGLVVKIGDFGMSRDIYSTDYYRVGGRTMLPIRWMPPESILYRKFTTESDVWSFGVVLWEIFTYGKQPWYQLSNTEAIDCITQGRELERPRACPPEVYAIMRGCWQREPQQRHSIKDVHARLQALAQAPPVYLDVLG

[7] = tested on: human primary neurons; test: MTT cytotoxicity assay, human primary neurons; format: cell-based; settings: 24 h exposure
Source text: as §1

[8] = target: T2, TrkA; test: Table of THPI-244 analogs: TrkA increase
Target sequence in this assay (P04629 33-796, species assumed): as the sequence (P04629 33-796) above

T1 sequence (Q3UFB7 34-799): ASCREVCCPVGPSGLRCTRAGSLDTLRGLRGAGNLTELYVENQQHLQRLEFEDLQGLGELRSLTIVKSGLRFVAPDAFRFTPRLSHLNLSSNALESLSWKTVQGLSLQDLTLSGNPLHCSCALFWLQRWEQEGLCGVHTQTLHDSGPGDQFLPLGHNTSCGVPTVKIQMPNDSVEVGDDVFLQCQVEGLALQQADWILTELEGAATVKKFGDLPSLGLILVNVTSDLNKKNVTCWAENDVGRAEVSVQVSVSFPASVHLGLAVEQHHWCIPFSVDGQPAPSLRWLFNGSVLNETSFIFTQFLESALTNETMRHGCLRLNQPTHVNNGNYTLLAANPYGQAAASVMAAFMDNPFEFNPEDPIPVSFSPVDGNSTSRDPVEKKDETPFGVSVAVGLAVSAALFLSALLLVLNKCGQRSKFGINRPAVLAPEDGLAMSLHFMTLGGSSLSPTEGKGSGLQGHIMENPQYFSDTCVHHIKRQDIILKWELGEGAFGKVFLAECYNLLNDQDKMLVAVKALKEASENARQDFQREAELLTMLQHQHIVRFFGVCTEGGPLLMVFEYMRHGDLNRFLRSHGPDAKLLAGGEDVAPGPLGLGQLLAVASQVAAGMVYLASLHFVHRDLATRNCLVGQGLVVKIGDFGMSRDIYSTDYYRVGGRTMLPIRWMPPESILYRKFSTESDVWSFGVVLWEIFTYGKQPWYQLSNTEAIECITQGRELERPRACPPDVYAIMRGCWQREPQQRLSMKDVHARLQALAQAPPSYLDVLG

## O=C(Cc1ccccc1)N[C@H](CNc1nc(CN2CCN(C(=O)Cc3ccccc3)CC2)cs1)c1ccccc1 [THPI-244]
[1]; 0.2 mg/kg i.p., mouse
  time to maximum level in brain: ≤ 5 min
[1]; 240 min after 0.2 mg/kg i.p.
  amount remaining in brain: negligible amount
[2]
  increase of sAPPα over untreated control cells (Western blot): 2 fold
[3]
  lowest concentration with significant decrease of Aβ42: 50 nM
[4]
  increase of TrkA in brain: 78%
[5]
  lowest concentration with significant cytotoxicity: 50 µM
[6]; THPI-244 100 nM
  TrkA protein level: 197%
[6]; THPI-244 100 nM plus PKC inhibitor GF 109203 1.0 nM
  TrkA protein level: 192%
[7]
  lowest concentration with significant cytotoxicity: 40 µM
[8]
  % TrkA ⬆: 99%
